Experimental data taken from patent US20250214960A1, “COMPOUNDS HAVING ACTIVITY OF DEGRADING GSPT1 AND APPLICATION THEREOF” (SHANGHAI MEIZER PHARMACEUTICALS CO., LTD., priority 2021, published 2025).
Read-outs that look alike come from different tables or passages of the source. Values belong to the compound of their own block, whether it stands above or below them.

Target: T1, GSPT1 protein (Homo sapiens, UniProt P15170+Q96SW2)
T1 construct: endogenous in cells; host or cells: Jeko-1
Assay: Western blot detection of degradation activity of GSPT1 protein in Jeko-1 cells
Assay type: cell-based
Conditions: for inhibition at 0.1 µM / inhibition at 10 µM / inhibition at 0.01 µM / inhibition at 1 µM: JeKo-1, 24 h, read-out: GSPT1 degradation rate (%)
Protocol: Test Example 1: Western Blot Detection of Degradation Activity of GSPT1 Protein by the Compounds
Cell line: Jeko-1 cell line was cultured with an RPMI1640 media containing 20% fetal bovine serum in an incubator at 37° C., 5% CO2, and saturated humidity.
DMSO control group and test compound (concentration shown in the table below) were set up, after processing for 24 hours, the cells were collected, pre-cooled cell lysate was added and left on ice for 10 minutes. The total protein of the cells was extracted, and the protein concentration was measured and quantified using the BCA method. Routine gel preparation, sample loading, electrophoresis were conducted, then the membrane was transferred, and sealed, wherein the primary antibody was diluted with a blocking solution at 1:500-5000. The membrane was immersed in the diluted primary antibody and incubated overnight at 4° C. After rinsing, the secondary antibody was diluted with a sealing solution at 1:10000-20000, the membrane was immersed in the diluted secondary antibody, and incubated at room temperature for 45 minutes. After rinsing, the results were tested on ODYSSEY (Li-COR). GAPDH was used as an internal reference control.
Image J software was used to perform gray level analysis on each band and the degradation rate of GSPT1 protein by the compounds was calculated.

T1 sequence (P15170 whole entry): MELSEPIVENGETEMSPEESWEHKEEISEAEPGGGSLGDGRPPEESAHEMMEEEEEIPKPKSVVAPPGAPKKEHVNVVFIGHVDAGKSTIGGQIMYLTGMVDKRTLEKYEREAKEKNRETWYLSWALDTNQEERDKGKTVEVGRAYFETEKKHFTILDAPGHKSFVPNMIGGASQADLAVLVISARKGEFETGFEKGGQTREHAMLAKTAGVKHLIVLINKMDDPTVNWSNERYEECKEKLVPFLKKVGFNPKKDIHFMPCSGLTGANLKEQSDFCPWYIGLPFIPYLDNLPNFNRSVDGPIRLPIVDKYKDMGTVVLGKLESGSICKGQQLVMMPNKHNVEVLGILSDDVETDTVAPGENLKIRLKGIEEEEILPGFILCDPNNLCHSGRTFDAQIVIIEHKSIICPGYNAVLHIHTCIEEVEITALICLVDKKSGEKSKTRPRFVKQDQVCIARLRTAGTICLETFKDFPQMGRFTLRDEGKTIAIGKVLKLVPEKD
T1 sequence (Q96SW2 whole entry): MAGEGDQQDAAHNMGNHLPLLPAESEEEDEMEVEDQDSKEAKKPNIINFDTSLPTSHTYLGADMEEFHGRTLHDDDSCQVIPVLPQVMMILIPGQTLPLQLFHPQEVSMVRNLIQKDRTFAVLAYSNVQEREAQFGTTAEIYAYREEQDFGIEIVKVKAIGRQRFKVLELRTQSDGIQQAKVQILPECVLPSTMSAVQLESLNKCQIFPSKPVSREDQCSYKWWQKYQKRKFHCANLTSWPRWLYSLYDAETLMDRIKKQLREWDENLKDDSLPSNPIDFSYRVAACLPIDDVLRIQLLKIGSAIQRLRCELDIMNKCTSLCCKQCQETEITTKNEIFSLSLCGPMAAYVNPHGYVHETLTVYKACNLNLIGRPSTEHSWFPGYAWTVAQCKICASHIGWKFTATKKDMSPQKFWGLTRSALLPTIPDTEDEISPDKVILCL
T1 sequence (Q16531 whole entry partner): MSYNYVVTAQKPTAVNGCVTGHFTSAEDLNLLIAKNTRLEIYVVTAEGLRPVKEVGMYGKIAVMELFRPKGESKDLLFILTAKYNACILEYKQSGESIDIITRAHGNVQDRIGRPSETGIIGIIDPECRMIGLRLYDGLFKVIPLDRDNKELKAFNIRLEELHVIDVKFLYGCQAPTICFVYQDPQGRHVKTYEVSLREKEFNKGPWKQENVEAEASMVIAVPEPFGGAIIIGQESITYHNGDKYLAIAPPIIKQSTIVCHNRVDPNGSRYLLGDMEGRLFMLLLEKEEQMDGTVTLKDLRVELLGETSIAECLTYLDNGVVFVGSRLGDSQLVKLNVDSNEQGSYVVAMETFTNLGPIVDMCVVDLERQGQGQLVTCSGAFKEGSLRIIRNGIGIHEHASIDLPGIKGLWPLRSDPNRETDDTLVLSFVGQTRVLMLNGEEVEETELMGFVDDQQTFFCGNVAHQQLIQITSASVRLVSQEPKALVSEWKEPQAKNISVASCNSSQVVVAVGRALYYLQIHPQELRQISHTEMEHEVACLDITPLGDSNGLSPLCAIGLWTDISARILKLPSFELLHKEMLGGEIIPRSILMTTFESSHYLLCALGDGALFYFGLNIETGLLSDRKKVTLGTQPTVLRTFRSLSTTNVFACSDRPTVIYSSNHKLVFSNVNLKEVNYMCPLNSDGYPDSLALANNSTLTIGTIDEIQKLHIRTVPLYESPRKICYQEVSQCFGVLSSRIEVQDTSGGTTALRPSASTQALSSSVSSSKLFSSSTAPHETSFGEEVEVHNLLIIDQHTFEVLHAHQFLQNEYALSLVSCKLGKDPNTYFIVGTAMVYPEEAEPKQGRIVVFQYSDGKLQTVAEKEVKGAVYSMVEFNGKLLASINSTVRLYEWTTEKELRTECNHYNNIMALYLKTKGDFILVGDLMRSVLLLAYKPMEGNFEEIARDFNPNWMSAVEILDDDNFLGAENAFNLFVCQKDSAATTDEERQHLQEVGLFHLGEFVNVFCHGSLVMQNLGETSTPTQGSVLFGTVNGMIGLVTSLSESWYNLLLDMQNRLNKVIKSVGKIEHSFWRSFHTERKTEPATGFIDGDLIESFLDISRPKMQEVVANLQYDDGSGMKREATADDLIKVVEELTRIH

Structure (SMILES): N[C@H](C(=O)NCc1ccc2c(c1)CN(C1CCC(=O)NC1=O)C2=O)c1ccccc1 (some centres unmarked) [Compound 4-87-2]
inhibition at 0.1 µM (100 nM, Jeko-1 cells, 24 hours): 21%
inhibition at 10 µM (10 μM, Jeko-1 cells, 24 hours): 15%

Structure (SMILES): CC(C)(C)OC(=O)N[C@@H](C(=O)NCc1ccc2c(c1)CN(C1CCC(=O)NC1=O)C2=O)c1ccccc1 (stereo partly drawn) [Compound 4-108, Tert butyl ((1R)-2-((2-(2-(2,6-Dioxopiperidin-3-yl)-1-oxoisoindolin-5-yl)methyl)amino)-2-oxo-1-phenylethyl) carbamate]
inhibition at 0.01 µM (10 nM, Jeko-1 cells, 24 hours): 10%
inhibition at 1 µM (1 μM, Jeko-1 cells, 24 hours): 95%

Structure (SMILES): CC(C)(C)OC(=O)NC(CC(=O)NCc1ccc2c(c1)CN(C1CCC(=O)NC1=O)C2=O)c1ccccc1 (centres unmarked) [Compound 4-130, Tert butyl (3-((2-(2,6-dioxypiperidin-3-yl)-1-oxoisoindolin-5-yl)methyl)amino)-3-oxo-1-phenylpropyl) carbamate]
inhibition at 0.1 µM (100 nM, Jeko-1 cells, 24 hours): 51%
inhibition at 10 µM (10 μM, Jeko-1 cells, 24 hours): 94%

Structure (SMILES): CC(C)(C)OC(=O)NCC(C(=O)NCc1ccc2c(c1)CN(C1CCC(=O)NC1=O)C2=O)c1ccccc1 (centres unmarked) [Compound 4-131]
inhibition at 0.1 µM (100 nM, Jeko-1 cells, 24 hours): 96%
inhibition at 10 µM (10 μM, Jeko-1 cells, 24 hours): 97%

Structure (SMILES): CC(C)(C)OC(=O)N[C@H](Cc1ccccc1)C(=O)NCc1ccc2c(c1)CN(C1CCC(=O)NC1=O)C2=O (stereo partly drawn) [Compound 4-132, Tert butyl ((2R)-1-((2-(2,6-dioxypiperidin-3-yl)-1-oxoisoindoline-5-yl)methyl)amino)-1-oxo-3-phenylpro p-2-yl) carbamate]
inhibition at 0.1 µM (100 nM, Jeko-1 cells, 24 hours): 93%
inhibition at 10 µM (10 μM, Jeko-1 cells, 24 hours): 96%

Structure (SMILES): CCOC(=O)N[C@H](C(=O)NCc1ccc2c(c1)CN(C1CCC(=O)NC1=O)C2=O)c1ccccc1 (stereo partly drawn) [Compound 4-138, Ethyl ((1S)-2-((2-(2,6-dioxypiperidin-3-yl)-1-oxoisoindoline-5-yl)methyl)amino)-2-oxo-1-phenylethyl) carbamate]
inhibition at 0.1 µM (100 nM, Jeko-1 cells, 24 hours): 31%
inhibition at 10 µM (10 μM, Jeko-1 cells, 24 hours): 88%

Structure (SMILES): O=C1CCC(N2Cc3cc(CNC(=O)[C@@H](NC(=O)OCc4ccccc4)c4ccccc4)ccc3C2=O)C(=O)N1 (stereo partly drawn) [Compound 4-139, Benzyl ((1S)-2-((2-(2,6-dioxypiperidin-3-yl)-1-oxoisoindoline-5-yl)methyl)amino)-2-oxo-1-phenylethyl) carbamate]
inhibition at 0.1 µM (100 nM, Jeko-1 cells, 24 hours): 98%
inhibition at 10 µM (10 μM, Jeko-1 cells, 24 hours): 97%

Structure (SMILES): CC(C)OC(=O)N[C@H](C(=O)NCc1ccc2c(c1)CN(C1CCC(=O)NC1=O)C2=O)c1ccccc1 (stereo partly drawn) [Compound 4-160, Isopropyl ((1S)-2-((2-(2,6-dioxypiperidin-3-yl)-1-oxoisoindoline-5-yl)methyl)amino)-2-oxo-1-phenylethy 1) carbamate]
inhibition at 0.1 µM: 96%
inhibition at 10 µM: 89%

Structure (SMILES): CC(C)(C)OC(=O)NC[C@@H](Cc1ccccc1)C(=O)NCc1ccc2c(c1)CN(C1CCC(=O)NC1=O)C2=O (stereo partly drawn) [Compound 4-171, Tert butyl ((2R)-2-benzyl-3-((2-(2,6-dioxypiperidin-3-yl)-1-oxoisoindolin-5-yl)methyl)amino)-3-oxopropyl) carbamate]
inhibition at 0.1 µM (100 nM, Jeko-1 cells, 24 hours): 29%
inhibition at 10 µM (10 μM, Jeko-1 cells, 24 hours): 88%

Structure (SMILES): CC(C)[C@@H]1CC[C@@H](C)C[C@H]1OC(=O)N[C@H](C(=O)NCc1ccc2c(c1)CN(C1CCC(=O)NC1=O)C2=O)c1ccccc1 (some centres unmarked) [Compound 4-175b]
inhibition at 0.01 µM: 98%
inhibition at 1 µM: 99%

Structure (SMILES): Cc1ccc(S(=O)(=O)N[C@H](C(=O)NCc2ccc3c(c2)CN(C2CCC(=O)NC2=O)C3=O)c2ccccc2)cc1 (some centres unmarked) [Compound 4-176]
inhibition at 0.1 µM (100 nM, Jeko-1 cells, 24 hours): 35%
inhibition at 10 µM (10 μM, Jeko-1 cells, 24 hours): 53%

Structure (SMILES): O=C1CCC(N2Cc3cc(CNC(=O)[C@@H](NC(=O)NCc4ccccc4)c4ccccc4)ccc3C2=O)C(=O)N1 (stereo partly drawn) [Compound 4-184, (2S)-2-(3-benzylurea)-N-((2-(2,6-dioxopyridin-3-yl)-1-oxoisoidoline-5-yl)methyl)-2-phenylacetamide]
inhibition at 0.1 µM (100 nM, Jeko-1 cells, 24 hours): 21%
inhibition at 10 µM (10 μM, Jeko-1 cells, 24 hours): 85%

Structure (SMILES): CC(C)(C)NC(=O)CNC(Cc1ccccc1)C(=O)NCc1ccc2c(c1)CN(C1CCC(=O)NC1=O)C2=O (centres unmarked) [Compound 4-186]
inhibition at 0.1 µM (100 nM, Jeko-1 cells, 24 hours): 26%
inhibition at 10 µM (10 μM, Jeko-1 cells, 24 hours): 56%

Structure (SMILES): CC(C)(C)NC(=O)NCC(Cc1ccccc1)C(=O)NCc1ccc2c(c1)CN(C1CCC(=O)NC1=O)C2=O (centres unmarked) [Compound 4-188, 2-Benzyl-3-(3-(tertbutyl)urea)-N-((2-(2,6-dioxypiperidin-3-yl)-1-oxoisoindoline-5-yl)methyl) propionamide]
inhibition at 0.1 µM (100 nM, Jeko-1 cells, 24 hours): 32%
inhibition at 10 µM (10 μM, Jeko-1 cells, 24 hours): 63%

Structure (SMILES): COC(C(=O)N[C@H](C(=O)NCc1ccc2c(c1)CN(C1CCC(=O)NC1=O)C2=O)c1ccccc1)c1ccccc1 (some centres unmarked) [Compound 4-199]
inhibition at 0.1 µM (100 nM, Jeko-1 cells, 24 hours): 14%
inhibition at 10 µM (10 μM, Jeko-1 cells, 24 hours): 81%

Structure (SMILES): O=C1CCC(N2Cc3cc(CNC(=O)C(CNC(=O)OC4CCCC4)c4ccccc4)ccc3C2=O)C(=O)N1 (centres unmarked) [Compound 5-3, Cyclopentyl (3-((2-(2,6-dioxypiperidin-3-yl)-1-oxoisoindolin-5-yl)methyl)amino)-3-oxo-2-phenylpropyl) carbamate]
inhibition at 0.1 µM: 76%
inhibition at 10 µM: 49%

Structure (SMILES): O=C1CCC(N2Cc3cc(CNC(=O)C(CNC(=O)Nc4ccccc4)c4ccccc4)ccc3C2=O)C(=O)N1 (centres unmarked) [Compound 5-11, N-((2-(2,6-dioxypiperidin-3-yl)-1-oxoisoindolin-5-yl)methyl)-2-phenyl-3-(3-phenylurea) propionamide]
inhibition at 0.1 µM: 17%
inhibition at 10 µM: 77%

Structure (SMILES): O=C1CCC(N2Cc3cc(CNC(=O)C(CNC(=O)c4ccccc4)c4ccccc4)ccc3C2=O)C(=O)N1 (centres unmarked) [Compound 5-26]
inhibition at 0.1 µM: 33%
inhibition at 10 µM: 98%

Structure (SMILES): CC(C)OC(=O)N[C@@H](Cc1ccccc1)C(=O)NCc1ccc2c(c1)CN(C1CCC(=O)NC1=O)C2=O (stereo partly drawn) [Compound 5-39, Isopropyl ((2S)-1-(2-(2,6-dioxypiperidin-3-yl)-1-oxoisoindoline-5-yl)methyl)amino)-1-oxo-3-phenylprop-2-yl) carbamate]
inhibition at 0.1 µM: 65.2%
inhibition at 10 µM: 85.8%

Continued, values first:

GSPT1 degradation rate (%) (100 nM, Jeko-1 cells, 24 hours): 45%
GSPT1 degradation rate (%) (10 μM, Jeko-1 cells, 24 hours): 93%
Structure (SMILES): O=C1CCC(N2Cc3cc(CNC(=O)C(CNC(=O)C4CCCC4)c4ccccc4)ccc3C2=O)C(=O)N1 (centres unmarked) [Compound 5-9]

inhibition at 0.1 µM (100 nM, Jeko-1 cells, 24 hours): 18%
inhibition at 10 µM (10 μM, Jeko-1 cells, 24 hours): 71%
Structure (SMILES): CC(C)(C)NC(=O)NCC(C(=O)NCc1ccc2c(c1)CN(C1CCC(=O)NC1=O)C2=O)c1ccccc1 (centres unmarked) [Compound 5-12]

inhibition at 0.1 µM (100 nM, Jeko-1 cells, 24 hours): 28%
inhibition at 10 µM (10 μM, Jeko-1 cells, 24 hours): 93%
Structure (SMILES): CC(C)(C)C(=O)NCC(C(=O)NCc1ccc2c(c1)CN(C1CCC(=O)NC1=O)C2=O)c1ccccc1 (centres unmarked) [Compound 5-23, N-((2-(2,6-dioxypiperidin-3-yl)-1-oxoisoidoline-5-yl)methyl)-2-phenyl-3-terpentylaminopropionamide]

inhibition at 0.1 µM (100 nM, Jeko-1 cells, 24 hours): 58%
inhibition at 10 µM (10 μM, Jeko-1 cells, 24 hours): 96%
Structure (SMILES): O=C1CCC(N2Cc3cc(CNC(=O)C(CNC(=O)C4CCCCC4)c4ccccc4)ccc3C2=O)C(=O)N1 (centres unmarked) [Compound 5-25]

inhibition at 0.1 µM (100 nM, Jeko-1 cells, 24 hours): 70%
inhibition at 10 µM (10 μM, Jeko-1 cells, 24 hours): 97%
Structure (SMILES): O=C1CCC(N2Cc3cc(CNC(=O)C(NC(=O)CC4CCCC4)c4ccccc4)ccc3C2=O)C(=O)N1 (centres unmarked) [Compound 5-29, 2-(2-cyclopentylacetamido)-N-((2-(2,6-dioxopyridin-3-yl)-1-oxoisoidoline-5-yl)methyl)-2-phenylacetamide]

inhibition at 0.1 µM (100 nM, Jeko-1 cells, 24 hours): 59%
inhibition at 10 µM (10 μM, Jeko-1 cells, 24 hours): 93%
Structure (SMILES): O=C1CCC(N2Cc3cc(CNC(=O)C(NC(=O)C4CCCC4)c4ccccc4)ccc3C2=O)C(=O)N1 (centres unmarked) [Compound 5-30]

inhibition at 0.1 µM (100 nM, Jeko-1 cells, 24 hours): 11.6%
inhibition at 10 µM (10 μM, Jeko-1 cells, 24 hours): 87.9%
Structure (SMILES): CC(C)(C)OC(=O)N[C@@H](CC(N)=O)C(=O)NCc1ccc2c(c1)CN(C1CCC(=O)NC1=O)C2=O (stereo partly drawn) [Compound 5-43, Tert butyl ((2S)-4-amino-1-((2-(2,6-dioxypiperidin-3-yl)-1-oxoisoindolin-5-yl)methyl)amino)-1,4-dioxobutane-2-yl) carbamate]

inhibition at 0.1 µM (100 nM, Jeko-1 cells, 24 hours): 38.1%
inhibition at 10 µM (10 μM, Jeko-1 cells, 24 hours): 92.7%
Structure (SMILES): O=C1CCC(N2Cc3cc(CNC(=O)[C@@H](CNC(=O)C4CCCC4)c4ccc(Cl)cc4)ccc3C2=O)C(=O)N1 (some centres unmarked) [Compound 5-52]

inhibition at 0.1 µM (100 nM, Jeko-1 cells, 24 hours): 26.1%
inhibition at 10 µM (10 μM, Jeko-1 cells, 24 hours): 91.2%
Structure (SMILES): O=C1CCC(N2Cc3cc(CNC(=O)C(CNC(=O)C4CCCC4)c4ccccc4)ccc3C2=O)C(=O)N1 [Compound 5-53, N-((2R)-3-((2-(2,6-dioxypiperidin-3-yl)-1-oxoisoindolin-5-yl)methyl)amino)-3-oxo-2-phen ylpropyl) cyclopentyl Formamide]

inhibition at 0.1 µM (100 nM, Jeko-1 cells, 24 hours): 41.3%
inhibition at 10 µM (10 μM, Jeko-1 cells, 24 hours): 87.1%
Structure (SMILES): O=C1CCC(N2Cc3cc(CNC(=O)[C@H](CC4CCCCC4)NC(=O)C4CCCC4)ccc3C2=O)C(=O)N1 (some centres unmarked) [Compound 5-54]

inhibition at 0.1 µM (100 nM, Jeko-1 cells, 24 hours): 85.1%
inhibition at 10 µM (10 μM, Jeko-1 cells, 24 hours): 93.9%
Structure (SMILES): CC(C)(C)OC(=O)NCC(C(=O)NCc1ccc2c(c1)CN(C1CCC(=O)NC1=O)C2=O)C1CCCCC1 (centres unmarked) [Compound 5-55, Tert butyl (2-cyclohexyl-3-((2-(2,6-dioxypiperidin-3-yl)-1-oxoisoindoline-5-yl)methyl)amino)-3-oxopropyl) carbamate]

inhibition at 0.1 µM (100 nM, Jeko-1 cells, 24 hours): 36%
inhibition at 10 µM (10 μM, Jeko-1 cells, 24 hours): 93.7%
Structure (SMILES): O=C1CCC(N2Cc3cc(CNC(=O)C(CNC(=O)C4CCCC4)C4CCCCC4)ccc3C2=O)C(=O)N1 (centres unmarked) [Compound 5-59]
